Results as given in patent publication US20030104507A1, “Method for detection of ATP” (priority 2001, published 2003).

System: Jurkat cells
Test: Effect of NaF on Jurkat cell luminescence
Format: cell-based
Text: In some cells, such as lymphoid cells (e.g., Jurkat), an increase in luminescence over time in the presence of the reagent composition solution is observed. While the underlying mechanism of this increase in luminescence is not known, it is postulated that it results from the functioning of ATP-generating enzymes in this cell. The activity of such enzymes, if left unchecked, will result in an over-estimation of ATP in a sample at the time of the assay. This experiment was designed to test the effects of sodium fluoride on luminescence when using lymphoid cells.
Jurkat cells (ATCC, CRL-1990) were grown in 5% CO2/95% air, 100% humidity at 37° C. and maintained in RPMI media (Sigma, R-8005) containing 10% FBS (Hyclone #SH30070), 1X non-essential amino acids (Hyclone SH30238) and 1 mM sodium pyruvate (Hyclone #SH30239). Cells were plated at 0, 12500, 25000, and 50000 cells/well in 100 μl of media in a 96-well microtiter luminometer plate. Quadruplicate replicates were prepared. To each of these wells was added reagent composition (reagent composition=40 mM Citrate buffer (pH 6.0), 110 mM MES buffer (pH 6.0), 0.2 mM EDTA, 0.2% Gelatin, 100 μg/ml Luciferase (LucPpe2m146, diluted from 37.8 mg/ml stock solution), 100 μM luciferin, 300 mM NaCl, 20 mM MgSO4, 0.05% Mazu DF-204, 0.6% DTAB). In addition, all but the “no KPO4” control sample contained 60 mM KPO4 buffer (pH 6.0). Various concentrations of NaF were then added to the above solution to final concentrations of 0, 1.0, 2.0, 4.0, 10.0 mM; one condition had 10.0 mM NaF but without KPO4.
Total reaction volume per well was 200 μl, consisting of 100 μl cells plus media and 100 μl reagent composition containing KPO4 and/or NaF. The light output was taken at various times on a Dynex microtiter plate luminometer at a 0.5 second read time. The resulting average rlus from quadruplicate wells and calculated signal stabilities as measured by their half-life values are reported in Table S.

SMILES: [F-].[Na+] [NaF, sodium fluoride]
- Average rlu (1.0 mM NaF, 12500 cells/well, 0 min): 358.61 rlu
- Average rlu (1.0 mM NaF, 12500 cells/well, 30 min): 341.31 rlu
- Average rlu (1.0 mM NaF, 12500 cells/well, 85 min): 331.08 rlu
- Average rlu (1.0 mM NaF, 12500 cells/well, 130 min): 323.54 rlu
- Average rlu (1.0 mM NaF, 12500 cells/well, 220 min): 271.89 rlu
- Average rlu (1.0 mM NaF, 12500 cells/well, 255 min): 257.06 rlu
- Average rlu (1.0 mM NaF, 12500 cells/well, 285 min): 247.61 rlu
- Average rlu (1.0 mM NaF, 25000 cells/well, 0 min): 691.68 rlu
- Average rlu (1.0 mM NaF, 25000 cells/well, 30 min): 640.53 rlu
- Average rlu (1.0 mM NaF, 25000 cells/well, 85 min): 611.45 rlu
- Average rlu (1.0 mM NaF, 25000 cells/well, 130 min): 596.87 rlu
- Average rlu (1.0 mM NaF, 25000 cells/well, 220 min): 495.89 rlu
- Average rlu (1.0 mM NaF, 25000 cells/well, 255 min): 463.32 rlu
- Average rlu (1.0 mM NaF, 25000 cells/well, 285 min): 446.32 rlu
- Average rlu (1.0 mM NaF, 50000 cells/well, 0 min): 1380.16 rlu
- Average rlu (1.0 mM NaF, 50000 cells/well, 30 min): 1268.49 rlu
- Average rlu (1.0 mM NaF, 50000 cells/well, 85 min): 1185.73 rlu
- Average rlu (1.0 mM NaF, 50000 cells/well, 130 min): 1147.33 rlu
- Average rlu (1.0 mM NaF, 50000 cells/well, 220 min): 936.82 rlu
- Average rlu (1.0 mM NaF, 50000 cells/well, 255 min): 862.31 rlu
- Average rlu (1.0 mM NaF, 50000 cells/well, 285 min): 832.15 rlu
- Average rlu (2.0 mM NaF, 12500 cells/well, 0 min): 348.16 rlu
- Average rlu (2.0 mM NaF, 12500 cells/well, 30 min): 333.48 rlu
- Average rlu (2.0 mM NaF, 12500 cells/well, 85 min): 323.75 rlu
- Average rlu (2.0 mM NaF, 12500 cells/well, 130 min): 317.48 rlu
- Average rlu (2.0 mM NaF, 12500 cells/well, 220 min): 258.43 rlu
- Average rlu (2.0 mM NaF, 12500 cells/well, 255 min): 251.90 rlu
- Average rlu (2.0 mM NaF, 12500 cells/well, 285 min): 239.40 rlu
- Average rlu (2.0 mM NaF, 25000 cells/well, 0 min): 679.02 rlu
- Average rlu (2.0 mM NaF, 25000 cells/well, 30 min): 631.69 rlu
- Average rlu (2.0 mM NaF, 25000 cells/well, 85 min): 603.07 rlu
- Average rlu (2.0 mM NaF, 25000 cells/well, 130 min): 589.08 rlu
- Average rlu (2.0 mM NaF, 25000 cells/well, 220 min): 472.37 rlu
- Average rlu (2.0 mM NaF, 25000 cells/well, 255 min): 455.25 rlu
- Average rlu (2.0 mM NaF, 25000 cells/well, 285 min): 433.54 rlu
- Average rlu (2.0 mM NaF, 50000 cells/well, 0 min): 1340.22 rlu
- Average rlu (2.0 mM NaF, 50000 cells/well, 30 min): 1239.83 rlu
- Average rlu (2.0 mM NaF, 50000 cells/well, 85 min): 1156.03 rlu
- Average rlu (2.0 mM NaF, 50000 cells/well, 130 min): 1111.04 rlu
- Average rlu (2.0 mM NaF, 50000 cells/well, 220 min): 873.26 rlu
- Average rlu (2.0 mM NaF, 50000 cells/well, 255 min): 829.87 rlu
- Average rlu (2.0 mM NaF, 50000 cells/well, 285 min): 781.80 rlu
- Average rlu (4.0 mM NaF, 12500 cells/well, 0 min): 367.69 rlu
- Average rlu (4.0 mM NaF, 12500 cells/well, 30 min): 346.05 rlu
- Average rlu (4.0 mM NaF, 12500 cells/well, 85 min): 335.27 rlu
- Average rlu (4.0 mM NaF, 12500 cells/well, 130 min): 331.07 rlu
- Average rlu (4.0 mM NaF, 12500 cells/well, 220 min): 275.13 rlu
- Average rlu (4.0 mM NaF, 12500 cells/well, 255 min): 259.58 rlu
- Average rlu (4.0 mM NaF, 12500 cells/well, 285 min): 251.79 rlu
- Average rlu (4.0 mM NaF, 25000 cells/well, 0 min): 691.41 rlu
- Average rlu (4.0 mM NaF, 25000 cells/well, 30 min): 634.08 rlu
- Average rlu (4.0 mM NaF, 25000 cells/well, 85 min): 604.37 rlu
- Average rlu (4.0 mM NaF, 25000 cells/well, 130 min): 587.41 rlu
- Average rlu (4.0 mM NaF, 25000 cells/well, 220 min): 476.36 rlu
- Average rlu (4.0 mM NaF, 25000 cells/well, 255 min): 453.66 rlu
- Average rlu (4.0 mM NaF, 25000 cells/well, 285 min): 436.38 rlu
- Average rlu (4.0 mM NaF, 50000 cells/well, 0 min): 1378.13 rlu
- Average rlu (4.0 mM NaF, 50000 cells/well, 30 min): 1277.41 rlu
- Average rlu (4.0 mM NaF, 50000 cells/well, 85 min): 1195.56 rlu
- Average rlu (4.0 mM NaF, 50000 cells/well, 130 min): 1139.99 rlu
- Average rlu (4.0 mM NaF, 50000 cells/well, 220 min): 883.49 rlu
- Average rlu (4.0 mM NaF, 50000 cells/well, 255 min): 853.43 rlu
- Average rlu (4.0 mM NaF, 50000 cells/well, 285 min): 813.31 rlu
- Average rlu (10.0 mM NaF, 12500 cells/well, 0 min): 364.79 rlu
- Average rlu (10.0 mM NaF, 12500 cells/well, 30 min): 343.44 rlu
- Average rlu (10.0 mM NaF, 12500 cells/well, 85 min): 331.48 rlu
- Average rlu (10.0 mM NaF, 12500 cells/well, 130 min): 326.32 rlu
- Average rlu (10.0 mM NaF, 12500 cells/well, 220 min): 271.64 rlu
- Average rlu (10.0 mM NaF, 12500 cells/well, 255 min): 256.88 rlu
- Average rlu (10.0 mM NaF, 12500 cells/well, 285 min): 248.30 rlu
- Average rlu (10.0 mM NaF, 25000 cells/well, 0 min): 753.29 rlu
- Average rlu (10.0 mM NaF, 25000 cells/well, 30 min): 677.94 rlu
- Average rlu (10.0 mM NaF, 25000 cells/well, 85 min): 635.67 rlu
- Average rlu (10.0 mM NaF, 25000 cells/well, 130 min): 617.77 rlu
- Average rlu (10.0 mM NaF, 25000 cells/well, 220 min): 496.08 rlu
- Average rlu (10.0 mM NaF, 25000 cells/well, 255 min): 471.66 rlu
- Average rlu (10.0 mM NaF, 25000 cells/well, 285 min): 450.76 rlu
- Average rlu (10.0 mM NaF, 50000 cells/well, 0 min): 1442.08 rlu
- Average rlu (10.0 mM NaF, 50000 cells/well, 30 min): 1324.67 rlu
- Average rlu (10.0 mM NaF, 50000 cells/well, 85 min): 1235.80 rlu
- Average rlu (10.0 mM NaF, 50000 cells/well, 130 min): 1181.84 rlu
- Average rlu (10.0 mM NaF, 50000 cells/well, 220 min): 903.44 rlu
- Average rlu (10.0 mM NaF, 50000 cells/well, 255 min): 870.95 rlu
- Average rlu (10.0 mM NaF, 50000 cells/well, 285 min): 826.48 rlu
- Average rlu (10.0 mM NaF, without KPO4, 12500 cells/well, 0 min): 409.57 rlu
- Average rlu (10.0 mM NaF, without KPO4, 12500 cells/well, 30 min): 400.10 rlu
- Average rlu (10.0 mM NaF, without KPO4, 12500 cells/well, 85 min): 384.84 rlu
- Average rlu (10.0 mM NaF, without KPO4, 12500 cells/well, 130 min): 371.42 rlu
- Average rlu (10.0 mM NaF, without KPO4, 12500 cells/well, 220 min): 294.12 rlu
- Average rlu (10.0 mM NaF, without KPO4, 12500 cells/well, 255 min): 283.01 rlu
- Average rlu (10.0 mM NaF, without KPO4, 12500 cells/well, 285 min): 267.78 rlu
- Average rlu (10.0 mM NaF, without KPO4, 25000 cells/well, 0 min): 806.87 rlu
- Average rlu (10.0 mM NaF, without KPO4, 25000 cells/well, 30 min): 785.16 rlu
- Average rlu (10.0 mM NaF, without KPO4, 25000 cells/well, 85 min): 734.44 rlu
- Average rlu (10.0 mM NaF, without KPO4, 25000 cells/well, 130 min): 692.57 rlu
- Average rlu (10.0 mM NaF, without KPO4, 25000 cells/well, 220 min): 516.69 rlu
- Average rlu (10.0 mM NaF, without KPO4, 25000 cells/well, 255 min): 498.99 rlu
- Average rlu (10.0 mM NaF, without KPO4, 25000 cells/well, 285 min): 468.90 rlu
- Average rlu (10.0 mM NaF, without KPO4, 50000 cells/well, 0 min): 1514.80 rlu
- Average rlu (10.0 mM NaF, without KPO4, 50000 cells/well, 30 min): 1449.30 rlu
- effect on the luminescence increase seen with Jurkat cells (NaF added to reagent composition): can inhibit the luminescence increase
